Measurements from patent US10597314B2, “Fatty acid biodispersant and methods of use” (General Electric Company, priority 2013, dated 2020).

Key:
[1] = system: biofilms; assay: Applicant's testing of the amount of cis-2-decenoic acid needed for sufficient activity; assay type: cell-based; settings: relative to the Article's 1.0 nM to 10 mM
Source text: An article titled A Fatty Acid Messenger Is Responsible for Inducing Dispersion in Microbial Biofilms, published in March 2009 in the Journal of Bacteriology (“Article”) is incorporated by reference herein in its entirety. The Article discloses that cis-2-decenoic acid may be used to disperse biofilms.

[2] = system: Microbial Biofilms; settings: as stated in the Article; cited from earlier work

In the case of `CCCCCCC/C=C\C(=O)O` [cis-2-decenoic acid], the “actual amount needed for sufficient activity” value [1] is reported as “several times more than that”.
For `CCCCCCC/C=C/C(=O)O` [trans-2-decenoic acid], the “amount needed for activity (biofilm dispersion)” value [2] is given as “in the mM range”.
